What was measured:
[1] = biological target: Neurotensin receptor subtype I (human, NTR1) (Homo sapiens, UniProt P30989); experiment: BT-NT binding to NTR1 arrays on coated glass slides, competition with unlabeled neurotensin; conditions: 2 nM BT-NT; for binding specificity of BT-NT: competition with 4 μM unlabeled neurotensin
Protocol: Neurotensin receptor subtype I (human, NTR1) was purchased from Perkin Elmer Life Sciences (Boston, Mass.) and was received as a membrane associated suspension in a buffer. Printing was carried out using a quill-pin printer (Cartesian Technologies Model PS 5000) equipped with software for programmable aspiration and dispensing. After printing the arrays were incubated in a humid chamber at room temperature for one hour, and then used for ligand binding experiments. Two different binding solutions, 2 nM BT-NT in binding buffer in either the absence or presence of neurotensin, were used to examine the total binding of fluorescently labeled neurotensin (2 nM BT-NT), and the specific inhibition of the binding of BT-NT in the presence of 4 μM unlabeled neurotensin. The binding buffer contained 50 mM Tris-HCl, pH 7.4, 10 mM MgCl2, 1 mM EDTA, 0.1% BSA. The incubation time for binding was one hour. After incubation, the slides were rinsed, dried, and examined using a Genipix scanner.
Glass slides were coated by incubating the slide with a 3 ml solution containing 1 mg/ml polymer (poly-lysine, 46 kDa, or polyethyleneimine, 50 kDa) in 0.1×PBS buffer for 30 minutes at room temperature, followed by rinsing with water and drying under nitrogen. […] Using a Telechem quill pin CMP5, we fabricated GPCR arrays.
Neurotensin receptor subtype 1 (human, NTR1) was purchased from Perkin Elmer Life Sciences (Boston, Mass.) and was received as a membrane associated suspension in a buffer. Printing was carried out using a quill-pin printer (Cartesian Technologies Model PS 5000) equipped with software for programmable aspiration and dispensing. After printing the arrays were incubated in a humid chamber at room temperature for one hour, and then used for ligand binding experiments. […] After incubation, the slides were rinsed, dried, and imaged in a fluorescence scanner. […]

streptavidin = streptavidin (Streptomyces avidinii, UniProt P22629); experiment: Binding of cy3-streptavidin to biotin-x-DHPE lipid arrays in presence of BSA; conditions: BSA 0.01%-1%; DPPC/DMPC/2% biotin-x-DHPE arrays on GAPS slide
Protocol: Seven 5×5 arrays of DPPC/DMPC/2% biotin-x-DHPE were printed onto a single Corning GAPS slide (data not shown). After incubation 3 sets of lipid arrays were pre-incubated with TR-BSA before the addition of Cy3-streptavidin. A second set of 3 arrays was incubated with TR-BSA together with cy3-streptavidin, while one array was covered with a solution of cy3-streptavidin. After 30 minutes the slides were rinsed, dried and imaged. The cy5 channel signal was used to monitor the adsorption of TR-BSA, and the cy3 channel signal was used to monitor the binding of cy3-streptavidin.

[2] = two reactive surfaces (epoxy silane, thiol-silane)

Sequence of Neurotensin receptor subtype I (human, NTR1) (P30989 whole entry): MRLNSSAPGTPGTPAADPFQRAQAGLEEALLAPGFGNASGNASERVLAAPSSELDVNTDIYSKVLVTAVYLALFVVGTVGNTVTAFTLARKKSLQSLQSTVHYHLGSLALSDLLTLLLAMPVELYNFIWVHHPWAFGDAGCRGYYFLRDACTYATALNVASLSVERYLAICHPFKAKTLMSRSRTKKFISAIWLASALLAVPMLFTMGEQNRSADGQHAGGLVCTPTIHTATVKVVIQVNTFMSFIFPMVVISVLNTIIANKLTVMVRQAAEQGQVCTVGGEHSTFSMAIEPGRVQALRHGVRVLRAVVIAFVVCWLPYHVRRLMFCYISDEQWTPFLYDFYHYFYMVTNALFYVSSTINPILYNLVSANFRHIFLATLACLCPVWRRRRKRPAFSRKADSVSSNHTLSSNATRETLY
Sequence of streptavidin (P22629 25-183, species assumed): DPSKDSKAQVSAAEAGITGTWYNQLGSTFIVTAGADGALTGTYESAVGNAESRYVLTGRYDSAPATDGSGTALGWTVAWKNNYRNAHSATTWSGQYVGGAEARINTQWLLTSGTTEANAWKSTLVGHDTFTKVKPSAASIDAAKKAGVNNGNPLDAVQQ

Substance	binding specificity of BT-NT ([1]; poly-lysine and polyethyleneimine surfaces (both)) [%]	binding specificity of BT-NT [1, 2]	total binding signal [1, 2]	effect on background level (streptavidin)	effect on binding specificity of cy3-streptavidin (streptavidin)
Bodipy-TMR-neurotensin [BT-NT]	~90	75-90%	relatively low		
bovine serum albumin [BSA]				reduces the background level in most cases	does not significantly decrease the binding specificity
